Read-outs that look alike come from different tables or passages of the source.
Columns and labels:
LBD of LXRα = LBD of LXRα (Homo sapiens (Human), UniProt Q13133); test: LXR luciferase transcriptional reporter gene assay, LXRα; assay type: cell-based; conditions: HEK293 cells, Gal4-LXRα LBD, 16 h, read-out: LXRα CELL EC50
LBD of LXRβ [1] = biological target: T1, LBD of LXRβ (Homo sapiens (Human), UniProt P55055); test: cell-based
LXR α LBD protein = LXR α LBD protein (Homo sapiens (Human), UniProt Q13133); test: LXR α radioligand binding assay (SPA, [3H]T0901317 competition)
Sequence of LXR α LBD protein (Q13133 209-447): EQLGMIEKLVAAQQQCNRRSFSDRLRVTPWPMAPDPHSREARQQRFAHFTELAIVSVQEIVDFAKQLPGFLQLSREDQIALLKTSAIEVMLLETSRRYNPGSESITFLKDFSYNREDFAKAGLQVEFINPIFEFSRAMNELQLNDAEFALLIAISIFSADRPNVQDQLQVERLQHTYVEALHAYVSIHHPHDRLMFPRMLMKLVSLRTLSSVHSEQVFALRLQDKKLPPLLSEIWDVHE

LXR β LBD protein = LXR β LBD protein (Homo sapiens (Human), UniProt P55055); test: LXR β radioligand binding assay (SPA, [3H]T0901317 competition); conditions: competition with 15 nM [3H]T0901317, LXRβ LBD
Sequence of LXR β LBD protein (P55055 222-460): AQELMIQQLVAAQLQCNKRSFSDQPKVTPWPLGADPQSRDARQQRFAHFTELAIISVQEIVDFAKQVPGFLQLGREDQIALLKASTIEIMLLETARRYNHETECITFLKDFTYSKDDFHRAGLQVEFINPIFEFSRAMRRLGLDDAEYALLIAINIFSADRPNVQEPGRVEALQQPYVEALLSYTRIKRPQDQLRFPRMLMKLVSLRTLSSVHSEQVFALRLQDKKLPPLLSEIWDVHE

LBD of LXRβ [2] = biological target: T1, LBD of LXRβ
[3] = competition with 15 nM [3H]T0901317, LXRα LBD

Sequence of LBD of LXRα (Q13133 209-447): as the sequence (Q13133 209-447) above
T1 sequence (P55055 222-460): as the sequence (P55055 222-460) above

| EC50 (LBD of LXRα) | EC50 (LBD of LXRβ [1]) | Ki (LXR α LBD protein; [3]) | Ki (LXR β LBD protein) | Ki (LXR α LBD protein; read-out: LXRα BINDING Ki) | Compound | EC50 (LBD of LXRβ [2]) |
| --- | --- | --- | --- | --- | --- | --- |
| 17.3 µM | 4.62 µM | > 3.33 µM | 1.16 µM | – | CCOC(=O)c1cnc(N2CCn3c(nc4ccc(S(C)(=O)=O)cc43)C2C(C)C)nc1C(F)(F)F (racemic) [Compound E3, Ethyl 2-(1-isopropyl-7-(methylsulfonyl)-3,4-dihydrobenzo[4,5]imidazo[1,2-a]pyrazin-2(1H)-yl)-4-(trifluoromethyl)pyrimidine-5-carboxylate] | – |
| > 20 µM | 2.69 µM | > 3.33 µM | > 2.5 µM | – | CC(C)C1c2nc3ccc(S(C)(=O)=O)cc3n2CCN1c1ncc(C(N)=O)c(C(F)(F)F)n1 (racemic) [Compound E5, 2-(1-isopropyl-7-(methylsulfonyl)-3,4-dihydrobenzo[4,5]imidazo[1,2-a]pyrazin-2(1H)-yl)-4-(trifluoromethyl)pyrimidine-5-carboxamide] | – |
| > 20 µM | 7.54 µM | – | > 2.5 µM | > 3.33 µM | CC(C)[C@@H]1c2nc3cc(CO)c(S(C)(=O)=O)cc3n2CCN1c1ncc(C(=O)O)c(C(F)(F)F)n1 (single isomer, unassigned) [Compound E14a] | – |
| > 20 µM | > 20 µM | – | > 2.5 µM | > 3.33 µM | CC(C)[C@H]1c2nc3cc(CO)c(S(C)(=O)=O)cc3n2CCN1c1ncc(C(=O)O)c(C(F)(F)F)n1 (single isomer, unassigned) [Compound E14b] | – |
| > 20 µM | – | – | – | > 3.33 µM | CNC(=O)c1cnc(N2CCn3c(nc4cc(CO)c(S(C)(=O)=O)cc43)[C@H]2C(C)C)nc1C(F)(F)F (single isomer, unassigned) [Compound E16a] | – |
| > 20 µM | – | – | – | > 3.33 µM | CNC(=O)c1cnc(N2CCn3c(nc4cc(CO)c(S(C)(=O)=O)cc43)[C@@H]2C(C)C)nc1C(F)(F)F (single isomer, unassigned) [Compound E16b] | – |
| > 20 µM | > 20 µM | > 3.33 µM | > 2.5 µM | – | Cc1nc(N2CCn3c(nc4cc(CO)c(S(C)(=O)=O)cc43)[C@H]2C(C)C)ncc1CO [Compound E19, (R)-(2-(8-(hydroxymethyl)-1-isopropyl-7-(methylsulfonyl)-3,4-dihydrobenzo[4,5]imidazo[1,2-a]pyrazin-2(1H)-yl)-4-methylpyrimidin-5-yl)methanol] | – |

| Compound | EC50 (LBD of LXRα) | EC50 (LBD of LXRβ [1]) | Ki (LXR α LBD protein; [3]) | Ki (LXR β LBD protein) | Ki (LXR α LBD protein; read-out: LXRα BINDING Ki) | EC50 (LBD of LXRβ [2]) |
| --- | --- | --- | --- | --- | --- | --- |
| CC(C)[C@H]1c2cc3ccc(S(C)(=O)=O)cc3n2CCN1c1ncc(CO)c(C(F)(F)F)n1 [Compound E25b, (S)-(2-(1-isopropyl-7-(methylsulfonyl)-3,4-dihydropyrazino[1,2-a]indol-2(1H)-yl)-4-(trifluoromethyl)pyrimidin-5-yl)methanol] | – | – | – | > 2.5 µM | – | 10.8 µM |

— patent publication US9073931B2, “Liver X receptor modulators” (Vitae Pharmaceuticals, Inc., priority 2012, dated 2015)
